Where a name gives a salt, the structure may show the parent alone.
What follows are compounds tested on KDR.
Method: Inhibition of Binding of VEGF 165 to KDR & Flt-1 Receptors as Measured by SPA Assay
Preparation of conditioned media containing the KDR-Fc soluble VEGF receptor.:
Human 293KDR2 cells, which secrete a soluble KDR-Fc fusion protein, were grown in Dulbecco's Modified Eagle Medium supplemented with 10% fetal calf serum, 2 mM glutamine, 10 units/ml penicillin G sulfate, 10 μg/ml streptomycin sulfate and 175 μg/ml geneticin (G418) sulfate. Cells were plated at a density of 10^6 cells/100 mm dish and incubated at 37° C. in a humidified atmosphere containing 95% air and 5% CO2. After 10 days, conditioned medium was collected and centrifuged at 15,000 rpm for 15 min to remove dead cells. A total of 0.1 volume of 1.15% gelatin and 0.02 volume of 1M HEPES buffer (pH 8) was added. Leupeptin and pepstatin A were added to 1 μg/ml each.
Preparation of ^125 I-labelled VEGF ligand:
Recombinant human ^125 T-labelled VEGF 165 was purchased from Amersham (3,800 cpm/fmol). ^125,-labelled VEGF was diluted in DMEM supplemented with gelatin (0.15%) and HEPES buffer (20 mM) to a final concentration of 40,000 cpm/25 μl.
Preparation of SPA beads:
SPA PVT antibody-binding beads were purchased from Amersham. Each bottle of SPA beads (500 mg) was reconstituted in 25 ml of DMEM supplemented with gelatin (0.15%) and HEPES buffer (20 mM). The bottle contents were well mixed (15 min with a stir bar at room temperature).
SPA assays were performed in flat-bottom polystyrene 96 well microtitre plates.
(a) Pipette 50 μl of SPA beads to well.
(b) Pipette 25 μl of conditioned medium to well.
(d) Pipette 25 μl of ^125 J-VEGF 165 to well.
The appropriate control wells were set up to measure non-specific binding, solvent effect, etc. The assays were run in duplicate or triplicate wells. Plates were sealed and incubate at room temperature without shaking for 5 to 20 hours. Plates were then counted in a Packard TopCount microtitre plate liquid scintillation counter.
A typical assay gave 3,000 to 6,000 cpm bound. Background binding (measured in the presence of 100-fold molar excess of unlabelled VEGF 165) was typically 200 to 300 cpm bound. Compounds were tested at 30, 10, 3, 1, 0.3 and 0.1 μg/ml in DMSO. […] Half maximal binding was determined by the following equation:
s=maximal cpm bound in the absence of compound.
The IC50 values were determined graphically by the following procedure:
A graph was drawn plotting compound concentration (x-axis) versus cpm bound (y-axis).
The half maximal binding was calculated using the equation above.
A horizontal line (LINE A) was drawn which intersects the y-axis at the half maximal binding value.
A vertical line (LINE B) was drawn through the point where LINE A intersects the inhibition curve.
The point where LINE B intersects the x-axis was extrapolated from the graph to give the IC50 value.

Row | IC50 [µg/mL] | SMILES
1 | 2.5 | O=C(/C=C/c1ccncc1)Nc1cc2c(cc1S(=O)(=O)O)-c1cc(S(=O)(=O)O)c(NC(=O)/C=C/c3ccncc3)cc1S2(=O)=O [Example 28, 5,5-Dioxo-3,7-bis-(3-pyridin-4-ylacryloylamino)-5H-5^6-dibenzothiophene-2,8-disulfonic acid, disodium salt]
2 | 4 | O=C(Nc1cc2c(cc1S(=O)(=O)O)-c1cc(S(=O)(=O)O)c(NC(=O)c3cc4ccccc4s3)cc1S2(=O)=O)c1cc2ccccc2s1 [Example 40, 3,7-Bis-[(benzo[b]thiophene-2-carbonyl)amino]-5,5-dioxo-5H-5^ -dibenzothiophene-2,8-disulfonic acid, disodium]
3 | 5 | COc1ccc(C(=O)Nc2cc3c(cc2S(=O)(=O)O)-c2cc(S(=O)(=O)O)c(NC(=O)c4ccc(OC)cc4)cc2S3(=O)=O)cc1 [Example 50, 3,7-Bis-(4-methoxybenzoyl-amino)-5,5-dioxo-5H-5^6-dibenzothiophene-2,8-disulfonic acid, disodium salt]
4 | 0.9 | COc1cc(/C=C/C(=O)Nc2cc3sc4cc(NC(=O)/C=C/c5cc(Br)c(O)c(OC)c5)c(C(=O)O)cc4c3cc2C(=O)O)cc(Br)c1O [Example 10, 3,7-Bis-[3-(3-bromo-4-hydroxy-5-methoxy-phenyl)acryloylamino]-dibenzothiophene-2,8-dicarboxylic Acid, disodium]
5 | 0.5 | O=C(/C=C/c1ccc(Br)cc1)Nc1cc2c(cc1S(=O)(=O)O)-c1cc(S(=O)(=O)O)c(NC(=O)/C=C/c3ccc(Br)cc3)cc1S2(=O)=O [Example 33, 3,7-Bis-[3-(4-bromophenyl)-acryloylamino]-5,5-dioxo-5H-5^6-dibenzothiophene-2,8-disulfonic acid, disodium salt]
6 | 3.4 | O=C(Nc1cc2sc3cc(NC(=O)c4ccc5cc6ccccc6cc5c4)c(C(=O)O)cc3c2cc1C(=O)O)c1ccc2cc3ccccc3cc2c1 [Example 3, 3,7-Bis[(2-anthracenylcarbonyl)amino]-2,8-dibenzothiophene-2,8-dicarboxylic acid, disodium salt]
7 | 2.5 | Cc1ccc(C)c(/C=C/C(=O)Nc2cc3c(cc2S(=O)(=O)O)-c2cc(S(=O)(=O)O)c(NC(=O)/C=C/c4cc(C)ccc4C)cc2S3(=O)=O)c1 [Example 35, 3,7-Bis-[3-(2,5-dimethylphenyl)-acryloylamino]-5,5-dioxo-5H-5^6-dibenzothiophene-2,8-disulfonic acid, disodium]
8 | 0.5 | O=C(Nc1ccc(C(=O)Nc2cc3c(cc2S(=O)(=O)O)-c2cc(S(=O)(=O)O)c(NC(=O)c4ccc(NC(=O)c5ccccc5)cc4)cc2S3(=O)=O)cc1)c1ccccc1 [Example 60, 3,7-Bis-(4-benzoylaminobenzoylamino)-5,5-dioxo-5H-5^6-dibenzothiophene-2,8-disulfonic acid, disodium salt]
9 | 1.7 | COc1ccc(/C=C/C(=O)Nc2cc3sc4cc(NC(=O)/C=C/c5ccc(OC)c(OC)c5OC)c(C(=O)O)cc4c3cc2C(=O)O)c(OC)c1OC [Example 11, 3,7-Bis-[3-(2,3,4-trimethoxyphenyl)acryloylamino]dibenzothiophene-2,8-dicarboxylic Acid, disodium salt]
10 | 1.5 | COc1ccc(C(=O)Nc2ccc(C(=O)Nc3cc4c(cc3S(=O)(=O)O)-c3cc(S(=O)(=O)O)c(NC(=O)c5ccc(NC(=O)c6ccc(OC)cc6OC)cc5OC)cc3S4(=O)=O)c(OC)c2)c(OC)c1 [Example 58, 3,7-Bis-({4-[(2,4-dimethoxy-phenyl)carbonyl-amino]-2-methoxy-phenyl}carbonyl-amino)-5,5-dioxo-5H-5^6-dibenzothiophene-2,8-disulfonic acid, disodium salt]
11 | 7 | CCOc1cc2ccccc2cc1C(=O)Nc1cc2c(cc1S(=O)(=O)O)-c1cc(S(=O)(=O)O)c(NC(=O)c3cc4ccccc4cc3OCC)cc1S2(=O)=O [Example 53, 3,7-Bis-(3-ethoxy-naphthalen-2-ylcarbonylamino)-5,5-dioxo-5H-5^6-dibenzothiophene-2,8-disulfonic acid, disodium salt]
12 | 2.5 | COc1ccccc1/C=C/C(=O)Nc1cc2c(cc1S(=O)(=O)O)-c1cc(S(=O)(=O)O)c(NC(=O)/C=C/c3ccccc3OC)cc1S2(=O)=O [Example 34, 3,7-Bis-[3-(2-methoxyphenyl)-acryloylamino]-5,5-dioxo-5H-5^6-dibenzothiophene-2,8-disulfonic acid, disodium salt]
13 | 6 | COc1cc(NC(C)=O)ccc1C(=O)Nc1cc2c(cc1S(=O)(=O)O)-c1cc(S(=O)(=O)O)c(NC(=O)c3ccc(NC(C)=O)cc3OC)cc1S2(=O)=O [Example 59, 3,7-Bis-[(4-acetylamino-2-methoxy-phenyl)carbonylamino]-5,5-dioxo-5H-5^6-dibenzothiophene-2,8-disulfonic acid, disodium salt]
14 | 1.5 | O=C(/C=C/c1cccc2ccccc12)Nc1cc2c(cc1S(=O)(=O)O)-c1cc(S(=O)(=O)O)c(NC(=O)/C=C/c3cccc4ccccc34)cc1S2(=O)=O [Example 26, 3,7-Bis-(3-naphthalen-1-yl-acryloylamino)-5,5-dioxo-5H-5^6-dibenzothiophene-2,8-disulfonic acid, disodium salt]
15 | 1.5 | Cc1nn(C)c2sc(C(=O)Nc3cc4c(cc3S(=O)(=O)O)-c3cc(S(=O)(=O)O)c(NC(=O)c5cc6c(C)nn(C)c6s5)cc3S4(=O)=O)cc12 [Example 44, 3,7-Bis-[(1,3-di-methyl-1H-thieno[2,3-c]pyrazole-5-carbonyl)amino]-5,5-dioxo-5H-5^6-dibenzothiophene-2,8-disulfonic acid, disodium salt]
16 | 6 | CC(C)c1ccc(/C=C/C(=O)Nc2cc3c(cc2S(=O)(=O)O)-c2cc(S(=O)(=O)O)c(NC(=O)/C=C/c4ccc(C(C)C)cc4)cc2S3(=O)=O)cc1 [Example 36, 3,7-Bis-[3-(4-isopropylphenyl)-acryloylamino]-5,5-dioxo-5H-5^ -dibenzothiophene-2,8-disulfonic acid, disodium]
17 | 5 | O=C(/C=C/c1cccc(C(F)(F)F)c1)Nc1cc2c(cc1S(=O)(=O)O)-c1cc(S(=O)(=O)O)c(NC(=O)/C=C/c3cccc(C(F)(F)F)c3)cc1S2(=O)=O [Example 38, 3,7-Bis-[3-(3-trifluoromethyl-phenyl)acryloyl-amino]-5,5-dioxo-5H-5^6-dibenzothiophene-2,8-disulfonic acid, disodium salt]
18 | 5 | O=C(Nc1cc2c(cc1S(=O)(=O)O)-c1cc(S(=O)(=O)O)c(NC(=O)c3ccc4ccccc4c3)cc1S2(=O)=O)c1ccc2ccccc2c1 [Example 57, 3,7-Bis-[(naphthalen-2-yl)carbonylamino]-5,5-dioxo-5H-5^6-dibenzothiophene-2,8-disulfonic acid, disodium salt]
19 | 3.4 | O=C(/C=C/c1ccc(-c2ccccc2)cc1)Nc1cc2sc3cc(NC(=O)/C=C/c4ccc(-c5ccccc5)cc4)c(C(=O)O)cc3c2cc1C(=O)O [Example 9, 3,7-Bis-(3-biphenyl-4-ylacryloylamino)dibenzothiophene-2,8-dicarboxylic Acid, disodium salt]
20 | 0.6 | O=C(Nc1cc2c(cc1S(=O)(=O)O)-c1cc(S(=O)(=O)O)c(NC(=O)c3cc4sccc4s3)cc1S2(=O)=O)c1cc2sccc2s1 [Example 43, 5,5-Dioxo-3,7-bis-[(thieno[3,2-b]thiophene-2-carbonyl)-amino]-5H-5^6-dibenzothiophene-2,8-disulfonic acid, disodium]
21 | 7 | O=C(Nc1cc2c(cc1S(=O)(=O)O)-c1cc(S(=O)(=O)O)c(NC(=O)c3ccc(S(=O)(=O)c4ccccc4)cc3)cc1S2(=O)=O)c1ccc(S(=O)(=O)c2ccccc2)cc1 [Example 52, 5,5-Dioxo-3,7-bis-(4-phenyl-sulfonylbenzoyl-amino)-5H-5^6-dibenzothiophene-2,8-disulfonic acid, disodium salt]

Row | SMILES | IC50 [µg/mL]
22 | C=C(C(=O)Nc1cc2sc3cc(Cl)c(C(=O)O)cc3c2cc1C(=O)O)c1ccc(OC)c(OC)c1Cl [Example 14, 3-Chloro-7-[2-(2-chloro-3,4-dimethoxyphenyl)acryloylamino]dibenzothiophene-2,8-dicarboxylic acid, disodium salt] | 3
23 | COc1ccccc1C=CC(=O)Nc1cc2c(cc1S(=O)(=O)O)-c1cc(S(=O)(=O)O)c(NC(=O)C=Cc3ccccc3OC)cc1S2(=O)=O [Example 37, 3,7-Bis-[3-(2-methoxyphenyl)-acryloylamino]-5,5-dioxo-5H-5^6-dibenzothiophene-2,8-disulfonic acid, disodium salt] | 2
24 | CCOP(=O)(O)c1cc2c(cc1NC(=O)c1ccc3cc4ccccc4cc3c1)S(=O)(=O)c1cc(NC(=O)c3ccc4cc5ccccc5cc4c3)c(P(=O)(O)OCC)cc1-2 [Example 22, [3,7-Bis-[(anthracene-2-carbonyl)amino]-8-(ethoxyhydroxy-phosphoryl)-5,5-dioxo-5H-5^6-dibenzothiophen-2-yl]-phosphonic acid mono-ethyl ester, disodium salt] | 0.06
25 | CCOP(=O)(O)c1cc2c(cc1NC(=O)c1cc3ccccc3s1)S(=O)(=O)c1cc(NC(=O)c3cc4ccccc4s3)c(P(=O)(OCC)OCC)cc1-2 [Example 23b, [3,7-Bis[(benzo[b]thiophene-2-carbonyl)amino-8-(diethoxyphosphoryl)-5,5-dioxo-5H-5λ^6-dibenzothiophen-2-yl]phosphonic acid monoethyl ester, monosodium salt] | 0.58
26 | CCOP(=O)(O)c1cc2c(cc1NC(=O)/C=C/c1ccc(OC)c(OC)c1Cl)S(=O)(=O)c1cc(NC(=O)/C=C/c3ccc(OC)c(OC)c3Cl)c(P(=O)(O)OCC)cc1-2 [Example 19, [3,7-Bis-[3-(2-chloro-3,4-dimethoxyphenyl)acryloylamino]-8-(ethoxyhydroxyphosphoryl)-5 .5-dioxo-5H-5λ^6-dibenzothiophen-2-yl]phosphonic acid monoethyl ester, disodium salt] | 0.55
27 | O=C(Nc1cc2sc3cc(NC(=O)c4cc5sccc5s4)c(C(=O)O)cc3c2cc1C(=O)O)c1cc2sccc2s1 [Example 5, 3,7-Bis[(thieno[3,2-b]thien-2-ylcarbonyl)amino]dibenzothiophene-2,8-dicarboxylic acid, disodium salt] | 0.7
28 | O=C(/C=C/c1ccc([N+](=O)[O-])cc1)Nc1cc2c(cc1S(=O)(=O)O)-c1cc(S(=O)(=O)O)c(NC(=O)/C=C/c3ccc([N+](=O)[O-])cc3)cc1S2(=O)=O [Example 25, 3,7-Bis-[3-(4-nitrophenyl)-acryloylamino]-5,5-dioxo-5H-5^6-dibenzothiophene-2,8-disulfonic acid, disodium salt] | 1
